The values that follow come from ChEMBL document CHEMBL2434873, “Synthesis of VS-105: A novel and potent vitamin D receptor agonist with reduced hypercalcemic effects” (Bioorg Med Chem Lett, 2013).

pEC50, pIC50: −log10 of the molar value.

Series [1] has as its system Rattus norvegicus. As to the kind of experiment: Toxicity in 5/6 nephrectomized uremic Sprague-Dawley rat assessed as dose require to cause hypercalcemia administered 3 times per week for 12 days measured 24 hrs post last dose. It is filed as organism-based. The note with it: in vivo.
The subject of series [2] is HL-60. As to the kind of experiment: Induction of human HL60 cell differentiation after 4 days by NBT reduction assay. To be noted: HL-60, 96 h. Format: functional, cell-based.
For series [3], the system named is Rattus norvegicus. As to the kind of experiment: Agonist activity at VDR in 5/6 nephrectomized uremic Sprague-Dawley rat assessed as dose require to suppress serum PTH level administered 3 times per week for 12 days measured 24 hrs post last dose by ELISA. It is filed as functional.
A short description of series [4]: Therapeutic index, ratio for induction of hypercalcemia over suppression of serum PTH level in 5/6 nephrectomized uremic Sprague-Dawley rat. Format: organism-based. To be noted: read-out: TI.
Series [5] addresses T1, Vitamin D3 receptor (Homo sapiens, UniProt P11473).
T1 sequence (P11473 whole entry): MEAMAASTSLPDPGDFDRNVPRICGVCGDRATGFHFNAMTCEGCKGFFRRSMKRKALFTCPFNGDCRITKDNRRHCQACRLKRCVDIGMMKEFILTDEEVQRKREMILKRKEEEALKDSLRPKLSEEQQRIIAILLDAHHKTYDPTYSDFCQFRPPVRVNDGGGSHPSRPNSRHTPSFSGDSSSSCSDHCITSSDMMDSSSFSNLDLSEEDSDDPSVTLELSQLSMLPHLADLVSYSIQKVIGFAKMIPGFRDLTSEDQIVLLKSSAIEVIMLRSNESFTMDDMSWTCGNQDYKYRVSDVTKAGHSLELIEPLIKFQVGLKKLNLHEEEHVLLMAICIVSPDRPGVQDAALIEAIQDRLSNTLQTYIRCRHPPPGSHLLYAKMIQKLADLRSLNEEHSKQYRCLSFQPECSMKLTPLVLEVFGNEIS
The series is described as follows: Binding affinity to VDR (unknown origin).

Series [6] addresses T1, Vitamin D3 receptor. The series is described as follows: Agonist activity at VDR ligand binding domain (unknown origin) by reporter gene assay.

With `C[C@H](/C=C/[C@H](C)C(C)(C)O)[C@H]1CC[C@H]2/C(=C/C=C3C[C@@H](O)C[C@H](O)C3)CCC[C@]12C` [PARICALCITOL], the Activity in series [1] is over 0.08 µg/kg; in series [3], 0.02 µg/kg. The pEC50 in series [2] is 7.90. The selectivity ratio in series [4] was 4.

Take `C=C1[C@H](O)CC(=C/C=C2\CCC[C@]3(C)[C@@H]([C@@H](C)OC[C@H](C)C(C)(C)O)CC[C@@H]23)C[C@H]1O`: the Activity in series [1] was over 0.6 µg/kg; in series [3], 0.004 µg/kg. The pEC50 was 7.93 in series [2] and over 10.00 in series [6]. This compound gave a pIC50 in series [5] of 7.42. In addition, the selectivity ratio in series [4] was over 50.
